The record followed here is patent US20230240296A1, “SEED TREATMENT FOR SAFENING WHEAT TO CHLOROACETAMIDE HERBICIDES” (THE BOARD OF TRUSTEES OF THE UNIVERSITY OF ARKANSAS, priority 2022, published 2023).

For the test, the system named is wheat cultivar 'Smiths Gold'. Description: Field trial: fenclorim seed treatment safening wheat against preemergence S-metolachlor (crop injury). The test is classed as in vivo. As for the experimental part: Thus, in some embodiments, the methods of the present invention reduce herbicide-induced crop injury. The reduction in crop injury, due to a particular herbicide, provided by a particular safener can be determined by visually assessing crop injury in a plot of wheat treated with both the herbicide and the safener and comparing it to the crop injury observed in a control plot that was treated with the herbicide alone. Crop injury may be assessed by assigning the treated plot a rating on a scale of 0 to 100, wherein 0 indicates no crop injury and 100 indicates complete crop destruction. This score may be assigned, for example, by comparing the crop groundcover (i.e., green pixels) in the treated plot to that of the control plot using photographs.
Group 15 herbicides are promising candidates for controlling ryegrass in wheat. However, these herbicides are not currently registered for use in this crop. Thus, a field trial was conducted in Fayetteville, Ark. in fall of 2021 to test the ability of the safener fenclorim to protect wheat against the Group 15 herbicide S-metolachlor.
Seed from the conventional wheat cultivar ‘Smiths Gold’ was treated with various rates of the safener fenclorim (0, 0.5, and 2.0 g/kg seed). […] Crop injury and control of ryegrass were evaluated at two and three weeks after crop emergence. […]

As to `Clc1cc(Cl)nc(-c2ccccc2)n1` [fenclorim, 4,6-dichloro-2-phenyl-pyrimidine], the “safening against S-metolachlor (percentage of injury to wheat)” value (fenclorim seed treatment 0.5 and 2.0 g/kg seed, S-metolachlor 750 and 1120 g ai/ha preemergence, two and three weeks after crop emergence, field, Fayetteville, Ark.) is “significant safening was achieved”. The “safening shown in plot photos of wheat plants” value (fenclorim seed treatment 0.5 or 2.0 g/kg seed, S-metolachlor 750 g ai/ha preemergent, two weeks after crop emergence) was “safening provided”.
